Test results published in article PMC8836147, “Design, Synthesis and Antifungal/Nematicidal Activity of Novel 1,2,4-Oxadiazole Derivatives Containing Amide Fragments” (International Journal of Molecular Sciences, 2022).

Experiments:
S. sclerotiorum = experiment: In vitro mycelium growth inhibition test; assay type: cell-based; details: Sclerotinia sclerotiorum; 50 μg/mL; mycelial growth; mean ± SD of three replicates; read-out: Inhibition Rate (%) S. sclerotiorum
Method: (§1) B. cinerea and S. scleotiorum were kindly provided by the Department of Pesticides, College of Plant Protection, Nanjing Agricultural University (Nanjing, China). All compounds were evaluated for mycelium growth inhibition tests against the two plant pathogenic fungi mentioned in previous reports. These two fungi were inoculated on potato dextrose agar (PDA) plates and were grown in biochemical incubators at 25 ± 1 °C for 2–4 days. The new mycelium was used to determine the antifungal activity. The target compounds were dissolved in 100 µL DMF, and they were then added into the PDA media to make the concentration 50 µg/mL. Mycelia dishes of about 5 mm in diameter were cut from the culture medium. Mycelium were picked up with a sterile inoculation needle, and the sample was inoculated in the middle of a PDA plate in a sterile environment. Afterwards, a preliminary screening of fungal activity was performed. […] Each test was carried out three times. The radial growth of the fungal colonies was gauged and recorded when the diameters of the blank control mycelia reached 5.0–5.5 cm. […] The final data were analyzed using SPSS v.25.0 (IBM, New York, NY, USA). The following formula was used to calculate the fungi inhibition rate. Inhibition rate (%) = [(Mycelium diameter of negative control − Mycelium diameter of treatment)/(Mycelium diameter of negative control − 0.5)] × 100%(1)

B. cinerea = experiment: In vitro mycelium growth inhibition test; assay type: cell-based; details: Botrytis cinerea; 50 μg/mL; mycelial growth; mean ± SD of three replicates; read-out: Inhibition Rate (%) B. cinerea
Method: as §1

C. elegans = experiment: microbe, parasite or virus in culture; details: Caenorhabditis elegans, 48 h, read-out: Corrected Mortality Rate ± SD (%) C. elegans
Excerpt: (§2) M. incognita (parasitic on tomato plants), A. besseyi (potato dextrose agar–Botrytis cinerea breeding), B. xylophilus (potato dextrose agar–Botrytis cinerea breeding), and C. elegans (nematode growth medium–inactivated Escherichia coli OP50 cultivation) were provided by the Fine Chemical Research and Development Center of Guizhou University (Guizhou, China). The methodology used for the nematocidal bioassays of these target compounds was modified in the light of the conventional methods reported in the previously published literature. The nematicidal activity of the target compounds against four nematodes was determined using 48-well biochemical culture dishes. All of the compounds were dissolved with 100 μL DMF and were diluted with 1% Tween-80 to obtain 200 and 50 μg/mL concentrations for the bioassays. Fosthiazate and tioxazafen were used as positive controls at the same concentrations, and a negative control group was prepared without compounds using the same methodology. An amount of 10 µL of nematode suspension (about 50 nematodes) and 300 µL of the trial solution were added to corresponding hole, and each treatment was set to three repetitions. All of the 48-well plates were placed in a biochemical incubator at 27 °C for dark light culture. […] Corrected mortality (%) = [(mortality of treatment % − mortality of negative control %)/(1 − mortality of negative control %)] × 100%(3)

B. xylophilus = experiment: microbe, parasite or virus in culture; details: Bursaphelenchus xylophilus, 48 h, read-out: Corrected Mortality Rate ± SD (%) B. xylophilus
Excerpt: as §2

M. incognita = experiment: microbe, parasite or virus in culture; details: Meloidogyne incognita, 48 h, read-out: Corrected Mortality Rate ± SD (%) M. incognita
Excerpt: as §2

A. besseyi = experiment: microbe, parasite or virus in culture; details: Aphelenchoides besseyi, 48 h, read-out: Corrected Mortality Rate ± SD (%) A. besseyi
Excerpt: as §2

SMILES	inhibition at 50 µg/mL (S. sclerotiorum) [%]	inhibition at 50 µg/mL (B. cinerea) [%]	mortality at 50 µg/mL (C. elegans) [%]	mortality at 200 µg/mL (C. elegans) [%]	mortality at 50 µg/mL (B. xylophilus) [%]	mortality at 200 µg/mL (B. xylophilus) [%]	mortality at 50 µg/mL (M. incognita) [%]	mortality at 200 µg/mL (M. incognita) [%]	mortality at 50 µg/mL (A. besseyi) [%]	mortality at 200 µg/mL (A. besseyi) [%]
O=C(NCCc1ncc(C(F)(F)F)cc1Cl)c1nc(-c2ccc(Br)nc2)no1 [Compound F18]	34.9 ± 1.1	55.9 ± 1.3	53.6 ± 2.4	90 ± 2.7	0	15.1 ± 1.2	0	36.7 ± 2.1	0	23 ± 2.3
Cc1ccc(-c2noc(C(=O)NCc3ccc(F)cc3F)n2)cc1 [Compound F7, N-(2,4-difluorobenzyl)-3-(p-tolyl)-1,2,4-oxadiazole-5-carboxamide]	56.4 ± 0.1	46.4 ± 0.8	68.2 ± 2.3	91.9 ± 2.5	0	28.1 ± 2.4	5.3 ± 1.1	24.9 ± 3.2	0	12.2 ± 2.1
O=C(Nc1ccc(Cl)cc1Cl)c1nc(-c2ccc(Br)nc2)no1 [Compound F20]	13.8 ± 0.5	55.8 ± 0.1	81.4 ± 1.5	100	0	41.2 ± 1.3	8.6 ± 2.2	41.2 ± 1.3	0	26.4 ± 2.5
O=C(NCCc1ncc(C(F)(F)F)cc1Cl)c1nc(-c2ccc(Cl)cc2)no1 [Compound F10, N-(2-(3-chloro-5-(trifluoromethyl)pyridin-2-yl)ethyl)-3-(4-chlorophenyl)-1,2,4-oxadiazole-5-carboxamide]	48.6 ± 1.2	24.2 ± 1.7	69.3 ± 1.8	100	0	12.1 ± 1.7	0	15.8 ± 3.5	0	23.6 ± 2.2
O=C(NCCc1ncc(C(F)(F)F)cc1Cl)c1nc(-c2ccccc2)no1 [Compound F2, N-(2-(3-chloro-5-(trifluoromethyl)pyridin-2-yl)ethyl)-3-phenyl-1,2,4-oxadiazole-5-carboxamide]	48.6 ± 1.6	23.6 ± 0.6	10.3 ± 1.4	46.7 ± 2.6	0	5.5 ± 1.6	7.4 ± 3.2	42.6 ± 3.6	0	15.1 ± 1.6
CCOP(=O)(SC(C)CC)N1CCSC1=O (stereo not drawn) [Fosthiazate, fosthiazate, reference compound]			100	100	38.8 ± 1.3	72.4 ± 1.9	91.4 ± 2.5	100	6.1 ± 3.1	38.4 ± 1.9
Cc1ccc(-c2noc(C(=O)NCCc3ccccn3)n2)cc1 [Compound F5, N -(2-(pyridin-2-yl)ethyl)-3-(p-tolyl)-1,2,4-oxadiazole-5-carboxamide]	56.3 ± 1.2	24.9 ± 1.6	67.9 ± 2.3	94.6 ± 1.7	0	8.1 ± 2.2	3.5 ± 1.3	35 ± 2.2	0	22.5 ± 3.2
O=C(Nc1ccc(Cl)cc1Cl)c1nc(-c2ncc(C(F)(F)F)cc2Cl)no1 [Compound F24]	1.8 ± 0.8	38.5 ± 0.5	9.6 ± 1.1	24.6 ± 1.4	0	21.2 ± 1.5	0	18.5 ± 1.1	0	23.4 ± 1.6
